SMILES	melting point [°C]
COc1ccc(-c2[nH]nc3c2C(=O)c2c(NC(=O)NNC(=O)c4ccc(O)c(O)c4)cccc2-3)cc1 [Example CLXI, 3-(4-methoxyphenyl)-5-(2-(3,4-dihydroxybenzoyl)hydrazinecarboxamido)indeno[1,2-c]pyrazol-4-one]	> 300
COc1ccc(-c2[nH]nc3c2C(=O)c2c(NC(=O)NNC(=O)c4ccccc4N)cccc2-3)cc1 [Example CLXV, 3-(4-methoxyphenyl)-5-(2-(2-aminobenzoyl)hydrazinecarboxamido)indeno[1,2-c]pyrazol-4-one]	257
COc1ccc(-c2[nH]nc3c2C(=O)c2c(NC(=O)NN(C)C)cccc2-3)cc1 [Example LXIV, 3-(4-methoxyphenyl)-5-(dimethylaminocarbamoyl)aminoindeno[1,2-c]pyrazol-4-one]	> 300
CN1CCN(CC(=O)Nc2cccc3c2C(=O)c2c-3n[nH]c2-c2ccc(N3CCOCC3)cc2)CC1 [Example LXXXII, 3-(4-(4-morpholinyl)phenyl)-5-((4-methyl-1-piperazinyl)acetamido)indeno[1,2-c]pyrazol-4-one]	258
CC(=O)Nc1cccc2c1C(=O)c1c-2n[nH]c1-c1cccs1 [Example LXXXIX, 3-(2-thienyl)-5-(acetamido)indeno[1,2-c]pyrazol-4-one]	269
CC(=O)Nc1cccc2c1C(=O)c1c-2n[nH]c1C(C)C [Example LXXXVI, 3-(i-propyl)-5-(acetamido)indeno[1,2-c]pyrazol-4-one]	> 250
CC(=O)Nc1cccc2c1C(=O)c1c-2n[nH]c1C(C)(C)C [Example LXXXVIII, 3-(t-butyl)-5-(acetamido)indeno[1,2-c]pyrazol-4-one]	> 250
COc1ccc(-c2[nH]nc3c2C(=O)c2c(NC(=O)NCc4ccc(N)cc4)cccc2-3)cc1 [Example XLIV, 3-(4-methoxyphenyl)-5-(4-aminobenzylcarbamoyl)aminoindeno[1,2-c]pyrazol-4-one]	> 300
COc1ccc(-c2[nH]nc3c2C(=O)c2c(NC(=O)CCNc4ccncc4)cccc2-3)cc1 [Example XXXV, 3-(4-methoxyphenyl)-5-(4-pyridinylaminomethylacetamido)indeno[1,2-c]pyrazol-4-one]	> 300

— patent US7250435B2, “Acylsemicarbazides as cyclin dependent kinase inhibitors useful as anti-cancer and anti-proliferative agents” (Bristol-Myers Squibb Pharma Company, priority 1999, dated 2007)
